# Data: US20230374015A1, “INHIBITORS OF FIBROBLAST GROWTH FACTOR RECEPTOR KINASES” (Kinnate Biopharma Inc., priority 2020, published 2023)
# Target: FGFR2 (Homo sapiens, UniProt P21802)
# Test: FGFR2 Kinase Protocol - Condition 2 (Reaction Biology HotSpot radiometric kinase assay, no preincubation)
# Format: biochemical
# Conditions: poly[Glu:Tyr] (4:1) 0.2 mg/ml, ATP 100 microM, 2 hr room temperature
# Procedure: Example 2: FGFR2 Kinase Protocol—Condition 2
# The Reaction Biology HotSpot assay platform (http://www.reactionbiology.com) was used to measure kinase/inhibitor interactions as described previously (Anastassiadis et al., 2011). In brief, for each reaction, kinase and substrate were mixed in a buffer containing 20 mM HEPES (pH 7.5), 10 mM MgCl2, 1 mM EGTA, 0.02% Brij35, 0.02 mg/mL BSA, 0.1 mM Na3VO4, 2 mM DTT, and 1% DMSO. All compounds were in powder form and freshly solubilized in DMSO for assays. Compounds were then added to each reaction mixture via acoustic dispense using an ECHO 550 nanoliter dispenser. For Human FGFR2 wildtype testing, a peptide substrate, poly[Glu:Tyr] (4:1) was used to promote the reaction at a concentration of 0.2 mg/ml. For Human FGFR2 (V564F) testing, a peptide substrate, poly[Glu:Tyr] (4:1) was used to promote the reaction at a concentration of 0.2 mg/ml. ATP concentration for all assays was maintained at 100 micromolar. Compounds were tested in 10-dose IC50 mode with a 3-fold serial dilution. Compounds were added to plates and ATP was added directly to the wells. ATP (Sigma-Aldrich, St. Louis, MO 63178) and [g33P] ATP (specific activity 10 microCi/microliter) purchased at PerkinElmer (Boston, MA, 02118 Cat #BLU 003H250UC) were added at a final total concentration of 100 microM to each well with no preincubation. Reactions were carried out at room temperature for 2 hr and spotted onto P81 ion exchange cellulose chromatography paper (Reaction Biology). Filter paper was washed in 0.75% phosphoric acid to remove unincorporated ATP. The percent remaining kinase activity relative to a vehicle-containing (DMSO) kinase reaction was calculated for each kinase/inhibitor pair. IC50 values were calculated using Dotmatics Knowledge Solutions Studies curve fitting (Dotmatics, Bishops Stortford, UK, CM23).
# Sequence of FGFR2 (P21802 22-821): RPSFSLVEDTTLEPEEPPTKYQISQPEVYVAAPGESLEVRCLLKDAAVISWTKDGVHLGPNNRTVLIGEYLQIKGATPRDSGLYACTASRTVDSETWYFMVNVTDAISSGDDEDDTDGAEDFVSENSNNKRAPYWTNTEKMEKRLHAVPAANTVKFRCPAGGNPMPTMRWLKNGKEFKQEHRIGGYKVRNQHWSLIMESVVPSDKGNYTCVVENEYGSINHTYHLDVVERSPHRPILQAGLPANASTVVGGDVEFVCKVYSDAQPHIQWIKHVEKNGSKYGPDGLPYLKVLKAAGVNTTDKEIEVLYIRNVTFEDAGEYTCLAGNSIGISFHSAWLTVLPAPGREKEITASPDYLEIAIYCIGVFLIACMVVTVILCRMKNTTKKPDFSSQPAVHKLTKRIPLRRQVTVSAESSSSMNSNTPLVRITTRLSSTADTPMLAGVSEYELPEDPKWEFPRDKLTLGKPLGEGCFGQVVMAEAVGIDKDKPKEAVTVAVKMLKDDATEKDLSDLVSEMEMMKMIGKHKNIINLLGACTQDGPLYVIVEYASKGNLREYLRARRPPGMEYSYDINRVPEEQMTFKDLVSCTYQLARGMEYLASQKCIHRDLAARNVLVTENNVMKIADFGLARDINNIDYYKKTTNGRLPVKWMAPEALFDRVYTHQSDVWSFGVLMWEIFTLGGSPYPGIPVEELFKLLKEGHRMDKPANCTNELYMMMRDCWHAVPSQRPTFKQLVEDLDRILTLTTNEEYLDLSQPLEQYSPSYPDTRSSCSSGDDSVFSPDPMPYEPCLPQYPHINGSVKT
row,IC50 [µM],Compound
1,≤ 0.1,"C=CC(=O)N1C[C@@H](n2nc(C#Cc3ccc4c(cnn4C)c3)c3c(N)ncnc32)C[C@@H]1COC [Example 40, 1-((2R,4S)-4-(4-amino-3-((1-methyl-1H-indazol-5-yl)ethynyl)-1H-pyrazolo[3,4-d]pyrimidin-1-yl)-2-(methoxymethyl)pyrrolidin-1-yl)prop-2-en-1-one]"
2,0.1 to 1,"C=CC(=O)N1C[C@@H](n2nc(C#Cc3ccc4nn(C)cc4c3)c3c(N)ncnc32)C[C@@H]1COC [Example 41, 1-[(2R,4S)-4-[4-amino-3-[2-(2-methylindazol-5-yl)ethynyl]pyrazolo[3,4-d]pyrimidin-1-yl]-2-(methoxymethyl)pyrrolidin-1-yl]prop-2-en-1-one]"
3,0.1 to 1,"C=CC(=O)N1C[C@@H](n2nc(C#Cc3ccc4nn(CC)cc4c3)c3c(N)ncnc32)C[C@@H]1COC [Example 42, 1-[(2R,4S)-4-[4-amino-3-[2-(2-ethylindazol-5-yl)ethynyl]pyrazolo[3,4-d]pyrimidin-1-yl]-2-(methoxymethyl)pyrrolidin-1-yl]prop-2-en-1-one]"
4,≤ 0.1,"C=CC(=O)N1C[C@@H](n2nc(C#Cc3ccc4c(c3)nc(C)n4C)c3c(N)nccc32)C[C@@H]1CC#N [Example 43, 2-((2R,4S)-1-acryloyl-4-(4-amino-3-((1,2-dimethyl-1H-benzo[d]imidazol-5-yl)ethynyl)-1H-pyrazolo[4,3-c]pyridin-1-yl)pyrrolidin-2-yl)acetonitrile]"
5,≤ 0.1,"C=CC(=O)N1C[C@@H](n2nc(C#Cc3c(F)cc4nn(C)cc4c3F)c3c(N)ncnc32)C[C@@H]1COC [Example 44, 1-((2R,4S)-4-(4-amino-3-((4,6-difluoro-2-methyl-2H-indazol-5-yl)ethynyl)-1H-pyrazolo[3,4-d]pyrimidin-1-yl)-2-(methoxymethyl)pyrrolidin-1-yl)prop-2-en-1-one]"
6,0.1 to 1,"C=CC(=O)N1C[C@@H](n2nc(C#Cc3c(F)cc4nn(C)cc4c3F)c3c(N)nccc32)C[C@@H]1COC [Example 45, 1-((2R,4S)-4-(4-amino-3-((4,6-difluoro-2-methyl-2H-indazol-5-yl)ethynyl)-1H-pyrazolo[4,3-c]pyridin-1-yl)-2-(methoxymethyl)pyrrolidin-1-yl)prop-2-en-1-one]"
7,≤ 0.1,"C=CC(=O)N1C[C@@H](n2nc(C#Cc3ccc4c(c3)nc(C(F)(F)F)n4C)c3c(N)ncnc32)C[C@@H]1COC [Example 46, 1-((2R,4S)-4-(4-amino-3-((1-methyl-2-(trifluoromethyl)-1H-benzo[d]imidazol-5-yl)ethynyl)-1H-pyrazolo[3,4-d]pyrimidin-1-yl)-2-(methoxymethyl)pyrrolidin-1-yl)prop-2-en-1-one]"
8,≤ 0.1,"C=CC(=O)N1C[C@@H](n2nc(C#Cc3ccc4c(c3)nc(C(F)(F)F)n4C)c3c(N)nccc32)C[C@@H]1COC [Example 47, 1-((2R,4S)-4-(4-amino-3-((1-methyl-2-(trifluoromethyl)-1H-benzo[d]imidazol-5-yl)ethynyl)-1H-pyrazolo[4,3-c]pyridin-1-yl)-2-(methoxymethyl)pyrrolidin-1-yl)prop-2-en-1-one]"
9,≤ 0.1,"C=CC(=O)N1C[C@@H](n2nc(C#Cc3c(F)cc4c(cnn4C)c3F)c3c(N)ncnc32)C[C@@H]1COC [Example 48, 1-((2R,4S)-4-(4-amino-3-((4,6-difluoro-1-methyl-1H-indazol-5-yl)ethynyl)-1H-pyrazolo[3,4-d]pyrimidin-1-yl)-2-(methoxymethyl)pyrrolidin-1-yl)prop-2-en-1-one]"
10,0.1 to 1,"C=CC(=O)N1C[C@@H](n2nc(C#Cc3c(F)cc4nn(CC)cc4c3F)c3c(N)ncnc32)C[C@@H]1COC [Example 49, 1-((2R,4S)-4-(4-amino-3-((2-ethyl-4,6-difluoro-2H-indazol-5-yl)ethynyl)-1H-pyrazolo[3,4-d]pyrimidin-1-yl)-2-(methoxymethyl)pyrrolidin-1-yl)prop-2-en-1-one]"
11,≤ 0.1,"C=CC(=O)N1C[C@@H](n2nc(C#Cc3c(F)cc4c(cnn4C)c3F)c3c(N)nccc32)C[C@@H]1COC [Example 50, 1-((2R,4S)-4-(4-amino-3-((4,6-difluoro-1-methyl-1H-indazol-5-yl)ethynyl)-1H-pyrazolo[4,3-c]pyridin-1-yl)-2-(methoxymethyl)pyrrolidin-1-yl)prop-2-en-1-one]"

# Further lines, the compound ahead of its results:
row,Compound,IC50 [µM]
1,"C=CC(=O)N1C[C@@H](n2nc(C#Cc3c(F)cc4c(nc(C)n4CC)c3F)c3c(N)ncnc32)C[C@@H]1COC [Example 32, 1-((2R,4S)-4-(4-amino-3-((1-ethyl-4,6-difluoro-2-methyl-1H-benzo[d]imidazol-5-yl)ethynyl)-1H-pyrazolo[3,4-d]pyrimidin-1-yl)-2-(methoxymethyl)pyrrolidin-1-yl)prop-2-en-1-one]",≤ 0.1
2,"C=CC(=O)N1C[C@@H](n2nc(C#Cc3c(F)cc4c(nc(C)n4CC)c3F)c3c(N)nccc32)C[C@@H]1COC [Example 33, 1-((2R,4S)-4-(4-amino-3-((1-ethyl-4,6-difluoro-2-methyl-1H-benzo[d]imidazol-5-yl)ethynyl)-1H-pyrazolo[4,3-c]pyridin-1-yl)-2-(methoxymethyl)pyrrolidin-1-yl)prop-2-en-1-one]",≤ 0.1
3,"C=CC(=O)N1C[C@@H](n2nc(C#Cc3ccc4c(cnn4CC)c3)c3c(N)ncnc32)C[C@@H]1COC [Example 34, 1-((2R,4S)-4-(4-amino-3-((1-ethyl-1H-indazol-5-yl)ethynyl)-1H-pyrazolo[3,4-d]pyrimidin-1-yl)-2-(methoxymethyl)pyrrolidin-1-yl)prop-2-en-1-one]",≤ 0.1
4,"C=CC(=O)N1C[C@@H](n2nc(C#Cc3ccc4c(cnn4C)c3)c3c(N)nccc32)C[C@@H]1COC [Example 35, 1-[(2R,4S)-4-[4-amino-3-[2-(1-methylindazol-5-yl)ethynyl]pyrazolo[4,3-c]pyridin-1-yl]-2-(methoxymethyl)pyrrolidin-1-yl]prop-2-en-1-one]",0.1 to 1
5,"C=CC(=O)N1C[C@@H](n2nc(C#Cc3ccc4nn(C)cc4c3)c3c(N)nccc32)C[C@@H]1COC [Example 36, 1-[(2R,4S)-4-[4-amino-3-[2-(2-methylindazol-5-yl)ethynyl]pyrazolo[4,3-c]pyridin-1-yl]-2-(methoxymethyl)pyrrolidin-1-yl]prop-2-en-1-one]",0.1 to 1
6,"C=CC(=O)N1C[C@@H](n2nc(C#Cc3ccc4c(cnn4CC)c3)c3c(N)nccc32)C[C@@H]1COC [Example 37, 1-((2R,4S)-4-(4-amino-3-((1-ethyl-1H-indazol-5-yl)ethynyl)-1H-pyrazolo[4,3-c]pyridin-1-yl)-2-(methoxymethyl)pyrrolidin-1-yl)prop-2-en-1-one]",≤ 0.1
7,"C=CC(=O)N1C[C@@H](n2nc(C#Cc3ccc4nn(CC)cc4c3)c3c(N)nccc32)C[C@@H]1COC [Example 38, 1-[(2R,4S)-4-[4-amino-3-[2-(2-ethylindazol-5-yl)ethynyl]pyrazolo[4,3-c]pyridin-1-yl]-2-(methoxymethyl)pyrrolidin-1-yl]prop-2-en-1-one]",1 to 10
8,"C=CC(=O)N1C[C@@H](n2nc(C#Cc3c(F)cc4c(nc(C)n4C)c3F)c3c(N)nccc32)C[C@@H]1CC#N [Example 39, 2-((2R,4S)-1-acryloyl-4-(4-amino-3-((4,6-difluoro-1,2-dimethyl-1H-benzo[d]imidazol-5-yl)ethynyl)-1H-pyrazolo[4,3-c]pyridin-1-yl)pyrrolidin-2-yl)acetonitrile]",≤ 0.1
